Laboratory results from the kinase profiling compilation of Christmann-Franck et al. (2016).

Columns and labels:
Assay in all cases: radiometric filter-binding kinase assay
MAPKAPK5 (human) = MAPKAPK5 (human) (UniProt Q8IW41)
IGF1R (human) = IGF1R (human) (UniProt P08069)
DYRK1A (human) = DYRK1A (human) (UniProt Q13627)
MAPK11 (human) = MAPK11 (human) (UniProt Q15759)
ROCK2 (rat) = settings: accession and sequence are those of the human protein
HIPK2 (human) = HIPK2 (human) (UniProt Q9H2X6)
PIM3 (human) = PIM3 (human) (UniProt Q86V86)
DYRK3 (human) = DYRK3 (human) (UniProt O43781)
BRSK2 (human) = BRSK2 (human) (UniProt Q8IWQ3)
YES1 (human) = YES1 (human) (UniProt P07947)
Chain of YES1 (human) (P07947 whole entry, looked up): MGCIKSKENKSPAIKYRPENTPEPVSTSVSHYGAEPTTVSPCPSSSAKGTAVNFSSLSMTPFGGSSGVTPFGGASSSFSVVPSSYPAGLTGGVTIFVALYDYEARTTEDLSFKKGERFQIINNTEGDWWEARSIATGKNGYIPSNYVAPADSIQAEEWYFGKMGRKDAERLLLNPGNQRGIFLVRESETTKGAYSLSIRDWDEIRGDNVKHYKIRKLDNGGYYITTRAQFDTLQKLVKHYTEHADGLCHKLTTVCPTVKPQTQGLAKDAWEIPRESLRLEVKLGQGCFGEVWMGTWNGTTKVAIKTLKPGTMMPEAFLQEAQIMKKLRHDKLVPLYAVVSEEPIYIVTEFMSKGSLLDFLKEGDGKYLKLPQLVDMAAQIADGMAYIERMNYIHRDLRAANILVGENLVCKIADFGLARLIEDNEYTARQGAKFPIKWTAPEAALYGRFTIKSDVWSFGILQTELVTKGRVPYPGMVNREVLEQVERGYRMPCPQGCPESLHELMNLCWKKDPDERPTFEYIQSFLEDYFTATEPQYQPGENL

LCK (mouse) = settings: accession and sequence are those of the human protein
STK3 (human) = STK3 (human) (UniProt Q13188)
SRPK1 (human) = SRPK1 (human) (UniProt Q96SB4)
Chain of SRPK1 (human) (Q96SB4 whole entry, looked up): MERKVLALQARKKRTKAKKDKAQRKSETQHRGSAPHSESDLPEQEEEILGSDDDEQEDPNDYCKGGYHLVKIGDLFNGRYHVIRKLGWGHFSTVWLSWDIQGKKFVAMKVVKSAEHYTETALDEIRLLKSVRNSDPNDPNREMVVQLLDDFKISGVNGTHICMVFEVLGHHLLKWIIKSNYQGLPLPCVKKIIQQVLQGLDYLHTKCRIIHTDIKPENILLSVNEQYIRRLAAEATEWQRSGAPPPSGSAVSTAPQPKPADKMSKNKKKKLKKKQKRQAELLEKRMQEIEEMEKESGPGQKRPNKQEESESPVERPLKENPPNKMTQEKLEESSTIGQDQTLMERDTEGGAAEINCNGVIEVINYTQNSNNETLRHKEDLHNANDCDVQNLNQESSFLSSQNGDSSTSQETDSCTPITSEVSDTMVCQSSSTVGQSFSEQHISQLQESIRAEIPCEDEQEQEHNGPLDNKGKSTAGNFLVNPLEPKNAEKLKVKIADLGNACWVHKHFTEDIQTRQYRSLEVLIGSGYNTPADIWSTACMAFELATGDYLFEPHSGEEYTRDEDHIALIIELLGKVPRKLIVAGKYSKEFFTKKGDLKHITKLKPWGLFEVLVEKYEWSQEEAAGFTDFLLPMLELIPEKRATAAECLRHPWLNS

AURKB (human) = AURKB (human) (UniProt Q96GD4)
FGFR1 (human) = FGFR1 (human) (UniProt P11362)
[1] = tested on: SGK1 (human), O00141 [S422D]
Chain of SGK1 (human), O00141 [S422D] (O00141 whole entry S422D, looked up): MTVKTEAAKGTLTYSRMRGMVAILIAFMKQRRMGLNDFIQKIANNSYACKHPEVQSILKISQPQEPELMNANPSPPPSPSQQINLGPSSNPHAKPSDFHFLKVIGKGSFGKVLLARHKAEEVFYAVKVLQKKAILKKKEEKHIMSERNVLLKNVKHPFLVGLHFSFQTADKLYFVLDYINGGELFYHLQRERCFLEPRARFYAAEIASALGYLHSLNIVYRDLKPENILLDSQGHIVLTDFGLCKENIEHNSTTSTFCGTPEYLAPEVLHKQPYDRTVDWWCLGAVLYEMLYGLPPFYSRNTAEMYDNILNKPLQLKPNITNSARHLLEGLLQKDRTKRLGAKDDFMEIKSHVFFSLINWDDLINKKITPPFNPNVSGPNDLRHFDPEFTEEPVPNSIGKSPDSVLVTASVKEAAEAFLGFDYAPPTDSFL

CaMK1 (human) = CaMK1 (human) (UniProt Q14012)
CAMKK2 (human) = CAMKK2 (human) (UniProt Q96RR4)
Chain of CAMKK2 (human) (Q96RR4 whole entry, looked up): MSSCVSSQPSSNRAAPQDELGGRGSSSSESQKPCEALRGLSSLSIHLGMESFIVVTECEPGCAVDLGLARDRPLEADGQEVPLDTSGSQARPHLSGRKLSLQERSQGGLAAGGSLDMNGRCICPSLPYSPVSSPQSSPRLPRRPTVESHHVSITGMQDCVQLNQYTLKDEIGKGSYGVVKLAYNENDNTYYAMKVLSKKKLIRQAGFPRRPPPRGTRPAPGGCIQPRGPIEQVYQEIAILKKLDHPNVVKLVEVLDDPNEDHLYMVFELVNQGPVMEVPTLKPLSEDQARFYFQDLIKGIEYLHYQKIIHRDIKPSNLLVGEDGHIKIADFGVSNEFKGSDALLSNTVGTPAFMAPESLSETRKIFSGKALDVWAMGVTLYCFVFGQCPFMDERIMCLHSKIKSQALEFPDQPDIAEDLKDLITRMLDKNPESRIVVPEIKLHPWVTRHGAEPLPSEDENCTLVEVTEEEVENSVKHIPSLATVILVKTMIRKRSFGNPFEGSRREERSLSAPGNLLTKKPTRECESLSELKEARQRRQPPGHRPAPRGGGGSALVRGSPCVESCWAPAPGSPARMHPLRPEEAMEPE

MAPK13 (human) = MAPK13 (human) (UniProt O15264)
CSNK2A1 (human) = CSNK2A1 (human) (UniProt P68400)
MARK3 (human) = MARK3 (human) (UniProt P27448)
Chain of MARK3 (human) (P27448 whole entry, looked up): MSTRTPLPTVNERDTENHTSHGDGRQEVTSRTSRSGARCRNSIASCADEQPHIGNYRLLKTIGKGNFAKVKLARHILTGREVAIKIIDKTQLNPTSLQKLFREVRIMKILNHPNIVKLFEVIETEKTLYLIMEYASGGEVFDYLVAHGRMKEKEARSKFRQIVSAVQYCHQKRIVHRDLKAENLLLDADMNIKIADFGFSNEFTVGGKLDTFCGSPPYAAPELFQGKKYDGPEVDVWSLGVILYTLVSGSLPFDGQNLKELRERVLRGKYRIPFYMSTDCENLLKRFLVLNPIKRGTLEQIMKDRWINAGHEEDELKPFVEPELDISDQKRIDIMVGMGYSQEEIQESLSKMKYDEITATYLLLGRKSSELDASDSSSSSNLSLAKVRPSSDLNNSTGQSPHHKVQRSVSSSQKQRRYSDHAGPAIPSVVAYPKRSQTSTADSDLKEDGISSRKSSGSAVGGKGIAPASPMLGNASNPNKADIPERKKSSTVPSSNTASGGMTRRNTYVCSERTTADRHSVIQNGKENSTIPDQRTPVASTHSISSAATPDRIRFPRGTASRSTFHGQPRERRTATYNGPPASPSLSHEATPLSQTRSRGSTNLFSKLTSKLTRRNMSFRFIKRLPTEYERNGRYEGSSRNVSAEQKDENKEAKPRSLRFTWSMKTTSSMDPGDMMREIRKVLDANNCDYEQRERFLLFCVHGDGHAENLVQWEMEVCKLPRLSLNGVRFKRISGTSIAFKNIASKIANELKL

PHKG1 (human) = PHKG1 (human) (UniProt Q16816)
MAPK8 (human) = MAPK8 (human) (UniProt P45983)
CHEK1 (human) = CHEK1 (human) (UniProt O14757)
MKNK1 (human) = MKNK1 (human) (UniProt Q9BUB5)
Chain of MKNK1 (human) (Q9BUB5 whole entry, looked up): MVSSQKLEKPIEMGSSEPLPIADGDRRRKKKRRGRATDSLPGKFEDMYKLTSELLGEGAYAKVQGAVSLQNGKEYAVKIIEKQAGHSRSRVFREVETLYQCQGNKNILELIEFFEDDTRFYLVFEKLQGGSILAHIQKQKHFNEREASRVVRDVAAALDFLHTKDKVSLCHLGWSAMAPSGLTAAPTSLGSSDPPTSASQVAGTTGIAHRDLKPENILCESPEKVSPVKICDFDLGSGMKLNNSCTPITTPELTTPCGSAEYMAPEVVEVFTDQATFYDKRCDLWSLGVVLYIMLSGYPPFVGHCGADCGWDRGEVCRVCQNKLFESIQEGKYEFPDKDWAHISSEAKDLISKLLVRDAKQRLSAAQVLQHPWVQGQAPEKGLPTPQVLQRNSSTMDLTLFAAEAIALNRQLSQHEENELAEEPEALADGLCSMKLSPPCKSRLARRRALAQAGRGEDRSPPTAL

TBK1 (human) = TBK1 (human) (UniProt Q9UHD2)

Chain of IGF1R (human) (P08069 whole entry, looked up): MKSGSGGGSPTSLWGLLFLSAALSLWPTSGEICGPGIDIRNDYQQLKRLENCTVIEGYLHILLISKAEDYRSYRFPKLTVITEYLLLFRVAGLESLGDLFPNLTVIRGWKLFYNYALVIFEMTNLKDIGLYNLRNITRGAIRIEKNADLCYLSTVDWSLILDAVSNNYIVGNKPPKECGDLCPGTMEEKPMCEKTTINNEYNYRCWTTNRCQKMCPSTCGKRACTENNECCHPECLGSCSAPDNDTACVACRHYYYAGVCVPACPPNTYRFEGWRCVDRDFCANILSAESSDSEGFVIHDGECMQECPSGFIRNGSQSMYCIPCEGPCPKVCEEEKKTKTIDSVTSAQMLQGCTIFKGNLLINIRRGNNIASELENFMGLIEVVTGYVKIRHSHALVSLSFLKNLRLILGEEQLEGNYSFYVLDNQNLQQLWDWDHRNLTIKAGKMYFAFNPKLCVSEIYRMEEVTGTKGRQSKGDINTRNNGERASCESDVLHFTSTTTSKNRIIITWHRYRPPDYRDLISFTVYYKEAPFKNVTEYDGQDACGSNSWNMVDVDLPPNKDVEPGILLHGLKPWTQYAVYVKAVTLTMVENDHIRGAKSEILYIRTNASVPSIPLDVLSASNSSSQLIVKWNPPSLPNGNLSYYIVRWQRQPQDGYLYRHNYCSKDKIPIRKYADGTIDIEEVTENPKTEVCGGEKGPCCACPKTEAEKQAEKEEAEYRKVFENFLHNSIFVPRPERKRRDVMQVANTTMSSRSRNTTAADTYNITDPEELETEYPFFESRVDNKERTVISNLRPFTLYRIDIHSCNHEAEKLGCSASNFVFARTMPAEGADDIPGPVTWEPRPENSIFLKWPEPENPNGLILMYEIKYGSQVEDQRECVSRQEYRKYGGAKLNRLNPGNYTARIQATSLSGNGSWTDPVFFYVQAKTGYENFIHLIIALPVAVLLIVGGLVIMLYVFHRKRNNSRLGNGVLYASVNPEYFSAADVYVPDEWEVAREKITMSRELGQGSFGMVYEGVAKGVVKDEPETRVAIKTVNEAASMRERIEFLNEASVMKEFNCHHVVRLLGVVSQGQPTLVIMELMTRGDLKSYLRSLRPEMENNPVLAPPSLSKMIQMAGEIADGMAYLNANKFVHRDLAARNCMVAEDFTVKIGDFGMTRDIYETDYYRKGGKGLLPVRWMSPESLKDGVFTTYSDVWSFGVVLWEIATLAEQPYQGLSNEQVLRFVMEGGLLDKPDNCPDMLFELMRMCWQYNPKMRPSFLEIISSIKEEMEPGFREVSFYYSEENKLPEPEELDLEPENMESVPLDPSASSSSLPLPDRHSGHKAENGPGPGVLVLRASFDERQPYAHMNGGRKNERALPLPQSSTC

C[C@H]1CCCC(=O)CCC/C=C/c2cc(O)cc(O)c2C(=O)O1
residual activity (MAPKAPK5 (human); compound 1.0 µM): 97%
residual activity (MAPKAPK5 (human); compound 10.0 µM): 79%
residual activity (IGF1R (human); compound 1.0 µM): 93%
residual activity (IGF1R (human); compound 10.0 µM): 64%
residual activity (DYRK1A (human); compound 10.0 µM): 32%
residual activity (MAPK11 (human); compound 1.0 µM): 108%
residual activity (MAPK11 (human); compound 10.0 µM): 101%
residual activity (ROCK2 (rat); compound 1.0 µM): 82%
residual activity (ROCK2 (rat); compound 10.0 µM): 81%
residual activity (HIPK2 (human); compound 1.0 µM): 100%
residual activity (HIPK2 (human); compound 10.0 µM): 63%
residual activity (PIM3 (human); compound 1.0 µM): 49%
residual activity (PIM3 (human); compound 10.0 µM): 18%
residual activity (DYRK3 (human); compound 1.0 µM): 100%
residual activity (DYRK3 (human); compound 10.0 µM): 62%
residual activity (BRSK2 (human); compound 1.0 µM): 54%
residual activity (BRSK2 (human); compound 10.0 µM): 17%
residual activity (YES1 (human); compound 1.0 µM): 79%
residual activity (YES1 (human); compound 10.0 µM): 35%
residual activity (LCK (mouse); compound 1.0 µM): 69%
residual activity (LCK (mouse); compound 10.0 µM): 26%
residual activity (STK3 (human); compound 1.0 µM): 119%
residual activity (STK3 (human); compound 10.0 µM): 113%
residual activity (SRPK1 (human); compound 1.0 µM): 95%
residual activity (SRPK1 (human); compound 10.0 µM): 89%
residual activity (AURKB (human); compound 1.0 µM): 37%
residual activity (AURKB (human); compound 10.0 µM): 23%
residual activity (FGFR1 (human); compound 1.0 µM): 90%
residual activity (FGFR1 (human); compound 10.0 µM): 51%
residual activity ([1]; compound 1.0 µM): 93%
residual activity ([1]; compound 10.0 µM): 93%
residual activity (CaMK1 (human); compound 1.0 µM): 101%
residual activity (CaMK1 (human); compound 10.0 µM): 75%
residual activity (CAMKK2 (human); compound 1.0 µM): 90%
residual activity (CAMKK2 (human); compound 10.0 µM): 52%
residual activity (MAPK13 (human); compound 1.0 µM): 84%
residual activity (MAPK13 (human); compound 10.0 µM): 87%
residual activity (CSNK2A1 (human); compound 1.0 µM): 97%
residual activity (CSNK2A1 (human); compound 10.0 µM): 96%
residual activity (MARK3 (human); compound 1.0 µM): 102%
residual activity (MARK3 (human); compound 10.0 µM): 99%
residual activity (PHKG1 (human); compound 1.0 µM): 102%
residual activity (PHKG1 (human); compound 10.0 µM): 86%
residual activity (MAPK8 (human); compound 1.0 µM): 88%
residual activity (MAPK8 (human); compound 10.0 µM): 80%
residual activity (CHEK1 (human); compound 1.0 µM): 92%
residual activity (CHEK1 (human); compound 10.0 µM): 81%
residual activity (MKNK1 (human); compound 1.0 µM): 89%
residual activity (MKNK1 (human); compound 10.0 µM): 46%
residual activity (TBK1 (human); compound 1.0 µM): 82%
residual activity (TBK1 (human); compound 10.0 µM): 80%

Cn1c(=O)c2c(ncn2C)n(C)c1=O
residual activity (MAPKAPK5 (human); compound 0.1 µM): 96%
residual activity (MAPKAPK5 (human); compound 1.0 µM): 86%
residual activity (IGF1R (human); compound 0.1 µM): 86%
residual activity (IGF1R (human); compound 1.0 µM): 94%
residual activity (DYRK1A (human); compound 0.1 µM): 92%
residual activity (DYRK1A (human); compound 1.0 µM): 96%
residual activity (MAPK11 (human); compound 0.1 µM): 107%
residual activity (MAPK11 (human); compound 1.0 µM): 104%
residual activity (ROCK2 (rat); compound 0.1 µM): 91%
residual activity (ROCK2 (rat); compound 1.0 µM): 93%
residual activity (HIPK2 (human); compound 0.1 µM): 103%
residual activity (HIPK2 (human); compound 1.0 µM): 112%
residual activity (PIM3 (human); compound 0.1 µM): 99%
residual activity (PIM3 (human); compound 1.0 µM): 97%
residual activity (DYRK3 (human); compound 0.1 µM): 96%
residual activity (DYRK3 (human); compound 1.0 µM): 98%
residual activity (BRSK2 (human); compound 0.1 µM): 99%
residual activity (BRSK2 (human); compound 1.0 µM): 97%
residual activity (YES1 (human); compound 0.1 µM): 85%
residual activity (YES1 (human); compound 1.0 µM): 85%
residual activity (LCK (mouse); compound 0.1 µM): 88%
residual activity (LCK (mouse); compound 1.0 µM): 92%
residual activity (STK3 (human); compound 0.1 µM): 97%
residual activity (STK3 (human); compound 1.0 µM): 89%
residual activity (SRPK1 (human); compound 0.1 µM): 93%
residual activity (SRPK1 (human); compound 1.0 µM): 97%
residual activity (AURKB (human); compound 0.1 µM): 91%
residual activity (AURKB (human); compound 1.0 µM): 83%
residual activity (FGFR1 (human); compound 0.1 µM): 118%
residual activity (FGFR1 (human); compound 1.0 µM): 112%
residual activity ([1]; compound 0.1 µM): 102%
residual activity (CaMK1 (human); compound 0.1 µM): 90%
residual activity (CaMK1 (human); compound 1.0 µM): 101%
residual activity (CAMKK2 (human); compound 0.1 µM): 104%
residual activity (CAMKK2 (human); compound 1.0 µM): 103%
residual activity (MAPK13 (human); compound 0.1 µM): 88%
residual activity (MAPK13 (human); compound 1.0 µM): 88%
residual activity (CSNK2A1 (human); compound 0.1 µM): 115%
residual activity (CSNK2A1 (human); compound 1.0 µM): 106%
residual activity (MARK3 (human); compound 0.1 µM): 79%
residual activity (MARK3 (human); compound 1.0 µM): 79%
residual activity (PHKG1 (human); compound 0.1 µM): 113%
residual activity (PHKG1 (human); compound 1.0 µM): 115%
residual activity (MAPK8 (human); compound 0.1 µM): 92%
residual activity (MAPK8 (human); compound 1.0 µM): 78%
residual activity (CHEK1 (human); compound 0.1 µM): 88%
residual activity (CHEK1 (human); compound 1.0 µM): 96%
residual activity (MKNK1 (human); compound 0.1 µM): 110%
residual activity (MKNK1 (human); compound 1.0 µM): 99%
residual activity (TBK1 (human); compound 0.1 µM): 92%
residual activity (TBK1 (human); compound 1.0 µM): 96%

Cc1cc(SCc2sc(-c3ccc(C(F)(F)F)cc3)nc2C)ccc1OCC(=O)O
residual activity (MAPKAPK5 (human); compound 10.0 µM): 39%
residual activity (IGF1R (human); compound 1.0 µM): 87%
residual activity (DYRK1A (human); compound 1.0 µM): 87%
residual activity (DYRK1A (human); compound 10.0 µM): 59%
residual activity (MAPK11 (human); compound 1.0 µM): 91%
residual activity (MAPK11 (human); compound 10.0 µM): 94%
residual activity (ROCK2 (rat); compound 1.0 µM): 99%
residual activity (ROCK2 (rat); compound 10.0 µM): 91%
residual activity (HIPK2 (human); compound 1.0 µM): 101%
residual activity (HIPK2 (human); compound 10.0 µM): 156%
residual activity (PIM3 (human); compound 1.0 µM): 86%
residual activity (PIM3 (human); compound 10.0 µM): 72%
residual activity (DYRK3 (human); compound 1.0 µM): 83%
residual activity (DYRK3 (human); compound 10.0 µM): 81%
residual activity (BRSK2 (human); compound 1.0 µM): 91%
residual activity (BRSK2 (human); compound 10.0 µM): 78%
residual activity (YES1 (human); compound 1.0 µM): 98%
residual activity (YES1 (human); compound 10.0 µM): 102%
residual activity (LCK (mouse); compound 1.0 µM): 106%
residual activity (LCK (mouse); compound 10.0 µM): 98%
residual activity (STK3 (human); compound 1.0 µM): 97%
residual activity (STK3 (human); compound 10.0 µM): 122%
residual activity (SRPK1 (human); compound 1.0 µM): 96%
residual activity (SRPK1 (human); compound 10.0 µM): 87%
residual activity (AURKB (human); compound 1.0 µM): 110%
residual activity (AURKB (human); compound 10.0 µM): 100%
residual activity (FGFR1 (human); compound 1.0 µM): 100%
residual activity (FGFR1 (human); compound 10.0 µM): 81%
residual activity ([1]; compound 1.0 µM): 111%
residual activity ([1]; compound 10.0 µM): 109%
residual activity (CaMK1 (human); compound 1.0 µM): 95%
residual activity (CaMK1 (human); compound 10.0 µM): 62%
residual activity (CAMKK2 (human); compound 1.0 µM): 86%
residual activity (CAMKK2 (human); compound 10.0 µM): 83%
residual activity (MAPK13 (human); compound 1.0 µM): 102%
residual activity (MAPK13 (human); compound 10.0 µM): 105%
residual activity (CSNK2A1 (human); compound 1.0 µM): 84%
residual activity (CSNK2A1 (human); compound 10.0 µM): 79%
residual activity (MARK3 (human); compound 1.0 µM): 93%
residual activity (MARK3 (human); compound 10.0 µM): 91%
residual activity (PHKG1 (human); compound 1.0 µM): 109%
residual activity (PHKG1 (human); compound 10.0 µM): 96%
residual activity (MAPK8 (human); compound 1.0 µM): 83%
residual activity (MAPK8 (human); compound 10.0 µM): 74%
residual activity (CHEK1 (human); compound 1.0 µM): 102%
residual activity (CHEK1 (human); compound 10.0 µM): 120%
residual activity (MKNK1 (human); compound 1.0 µM): 89%
residual activity (MKNK1 (human); compound 10.0 µM): 79%
residual activity (TBK1 (human); compound 1.0 µM): 102%
residual activity (TBK1 (human); compound 10.0 µM): 88%
